Reference: US8415351B2 (priority 2007, dated 2013)
pEC50: −log10 of the molar value.

Assays:
[1] = tested on: genotype 1a-H77 subgenomic replicon cell line; experiment: microbe, parasite or virus in culture; assay type: cell-based, HCV; settings: Hepatitis C virus, read-out: EC50 1a
[2] = tested on: genotype 1b-Con1 subgenomic replicon cell line; experiment: microbe, parasite or virus in culture; assay type: cell-based, HCV; settings: Hepatitis C virus, read-out: EC50 1b

COc1c(CCc2ccc(NS(C)(=O)=O)cc2)cc(N2CCC(=O)NC2=O)cc1C(C)(C)C [IA-L5-2-1.1, N-(4-(3-tert-butyl-5-(2,4-dioxotetrahydropyrimidin-1(2H)-yl)-2-methoxyphenethyl)phenyl)methanesulfonamide]
pEC50 [1]: 6.00 to 7.00 | pEC50 [2]: 7.00 to 8.00

CC(C)(C)c1cc(CCc2ccc(NS(C)(=O)=O)cc2)cc(N2CCC(=O)NC2=O)c1 [IA-L5-2-1.2, N-(4-(3-tert-butyl-5-(2,4-dioxotetrahydropyrimidin-1(2H)-yl)phenethyl)phenyl)methane sulfonamide]
pEC50 [1]: 6.00 to 7.00 | pEC50 [2]: 6.00 to 7.00

COc1c(C2CC2c2ccc(NS(C)(=O)=O)cc2)cc(N2CCC(=O)NC2=O)cc1C(C)(C)C (stereo not shown) [IA-L8-1.1, N-(4-(2-(3-tert-butyl-5-(2,4-dioxotetrahydropyrimidin-1(2H)-yl)-2-methoxyphenyl)cyclopropyl)phenyl)methanesulfonamide]
pEC50 [1]: 6.00 to 7.00 | pEC50 [2]: 6.00 to 7.00

COc1c(-c2ccc3ccccc3c2)cc(-n2ccc(=O)[nH]c2=O)cc1C(C)(C)C [IB-L0-2.1, 1-(3-tert-butyl-4-methoxy-5-(naphthalen-2-yl)phenyl)pyrimidine-2,4(1H,3H)-dione]
pEC50 [1]: < 6.00 | pEC50 [2]: 6.00 to 7.00

COc1ccc2cc(-c3cc(-n4ccc(=O)[nH]c4=O)cc(C(C)(C)C)c3OC)ccc2c1 [IB-L0-2.2, 1-(3-tert-butyl-4-methoxy-5-(6-methoxynaphthalen-2-yl)phenyl)pyrimidine-2,4(1H,3H)-dione]
pEC50 [1]: < 6.00 | pEC50 [2]: < 6.00

COc1c(-c2ccc3cc(NS(C)(=O)=O)ccc3c2)cc(-n2ccc(=O)[nH]c2=O)cc1C(C)(C)C [IB-L0-2.3, N-(6-(3-tert-butyl-5-(2,4-dioxo-3,4-dihydropyrimidin-1(2H)-yl)-2-methoxyphenyl)naphthalen-2-yl)methanesulfonamide]
pEC50 [1]: > 8.00 | pEC50 [2]: > 8.00

COc1c(-c2ccc3nc(NS(C)(=O)=O)ccc3c2)cc(-n2ccc(=O)[nH]c2=O)cc1C(C)(C)C [IB-L0-2.5, N-(6-(3-tert-butyl-5-(2,4-dioxo-3,4-dihydropyrimidin-1(2H)-yl)-2-methoxyphenyl)quinolin-2-yl)methanesulfonamide]
pEC50 [1]: 7.00 to 8.00 | pEC50 [2]: > 8.00

COc1c(-c2nc3cc(NS(C)(=O)=O)ccc3o2)cc(-n2ccc(=O)[nH]c2=O)cc1C(C)(C)C [IB-L0-2.6, N-(2-(3-tert-butyl-5-(2,4-dioxo-3,4-dihydropyrimidin-1(2H)-yl)-2-methoxyphenyl)benzo[d]oxazol-5-yl)methanesulfonamide]
pEC50 [1]: 6.00 to 7.00 | pEC50 [2]: 7.00 to 8.00

COc1c(-c2ccc3c(c2)CC[C@]3(F)CNS(C)(=O)=O)cc(-n2ccc(=O)[nH]c2=O)cc1C(C)(C)C [IB-L0-2.10, (R)—N-((5-(3-tert-butyl-5-(2,4-dioxo-3,4-dihydropyrimidin-1(2H)-yl)-2-methoxyphenyl)-1-fluoro-2,3-dihydro-1H-inden-1-yl)methyl)methanesulfonamide]
pEC50 [1]: > 8.00 | pEC50 [2]: > 8.00

COc1c(-c2ccc3c(c2)CC=C3CN(C)S(C)(=O)=O)cc(-n2ccc(=O)[nH]c2=O)cc1C(C)(C)C [IB-L0-2.16, N-((6-(3-tert-butyl-5-(2,4-dioxo-3,4-dihydropyrimidin-1(2H)-yl)-2-methoxyphenyl)-1H-inden-3-yl)methyl)-N-methylmethanesulfonamide]
pEC50 [1]: 6.00 to 7.00 | pEC50 [2]: > 8.00

COc1c(N2CCc3cc(NS(C)(=O)=O)ccc3C2)cc(-n2ccc(=O)[nH]c2=O)cc1C(C)(C)C [IB-L0-2.19, N-(2-(3-tert-butyl-5-(2,4-dioxo-3,4-dihydropyrimidin-1(2H)-yl)-2-methoxyphenyl)-1,2,3,4-tetrahydroisoquinolin-6-yl)methanesulfonamide]
pEC50 [1]: 7.00 to 8.00 | pEC50 [2]: 7.00 to 8.00

COc1c(-c2ccc3c(c2)CC[C@@]3(F)CNS(C)(=O)=O)cc(-n2ccc(=O)[nH]c2=O)cc1C(C)(C)C [IB-L0-2.20, (S)—N-((5-(3-tert-butyl-5-(2,4-dioxo-3,4-dihydropyrimidin-1(2H)-yl)-2-methoxyphenyl)-1-fluoro-2,3-dihydro-1H-inden-1-yl)methyl)methanesulfonamide]
pEC50 [1]: 6.00 to 7.00 | pEC50 [2]: 7.00 to 8.00

COc1c(-c2ccc3nc(NS(C)(=O)=O)cnc3c2)cc(-n2ccc(=O)[nH]c2=O)cc1C(C)(C)C [IB-L0-2.26, N-(6-(3-tert-butyl-5-(2,4-dioxo-3,4-dihydropyrimidin-1(2H)-yl)-2-methoxyphenyl)quinoxalin-2-yl)methanesulfonamide]
pEC50 [1]: < 6.00 | pEC50 [2]: 6.00 to 7.00

COc1c(-c2ccc3nc(N)sc3c2)cc(-n2ccc(=O)[nH]c2=O)cc1C(C)(C)C [IB-L0-2.27, 1-(3-(2-aminobenzo[d]thiazol-6-yl)-5-tert-butyl-4-methoxy-phenyl)pyrimidine-2,4(1H,3H)-dione]
pEC50 [1]: 6.00 to 7.00 | pEC50 [2]: 7.00 to 8.00

COc1c(-c2ccc3nc(NS(C)(=O)=O)sc3c2)cc(-n2ccc(=O)[nH]c2=O)cc1C(C)(C)C [IB-L0-2.28, N-(6-(3-tert-butyl-5-(2,4-dioxo-3,4-dihydropyrimidin-1(2H)-yl)-2-methoxyphenyl)benzo[d]thiazol-2-yl)methanesulfonamide]
pEC50 [1]: < 6.00 | pEC50 [2]: 6.00 to 7.00

COc1c(-c2ccc3c(c2)CNC3=O)cc(-n2ccc(=O)[nH]c2=O)cc1C(C)(C)C [IB-L0-2.30, 1-(3-tert-butyl-4-methoxy-5-(1-oxoisoindolin-5-yl)phenyl)-pyrimidine-2,4(1H,3H)-dione]
pEC50 [1]: 6.00 to 7.00 | pEC50 [2]: 7.00 to 8.00

COc1c(-c2ccc3c(c2)CCN3S(C)(=O)=O)cc(-n2ccc(=O)[nH]c2=O)cc1C(C)(C)C [IB-L0-2.32, 1-(3-tert-butyl-4-methoxy-5-(1-(methylsulfonyl)indolin-5-yl)phenyl)pyrimidine-2,4(1H,3H)-dione]
pEC50 [1]: 6.00 to 7.00 | pEC50 [2]: 7.00 to 8.00

COc1c(-c2ccc3ncsc3c2)cc(-n2ccc(=O)[nH]c2=O)cc1C(C)(C)C [IB-L0-2.33, 1-(3-(benzo[d]thiazol-6-yl)-5-tert-butyl-4-methoxyphenyl)pyrimidine-2,4(1H,3H)-dione]
pEC50 [1]: 6.00 to 7.00 | pEC50 [2]: 6.00 to 7.00

COc1c(-c2ccc3nc(Cl)sc3c2)cc(-n2ccc(=O)[nH]c2=O)cc1C(C)(C)C [IB-L0-2.38, 1-(3-tert-butyl-5-(2-chlorobenzo[d]thiazol-6-yl)-4-methoxyphenyl)pyrimidine-2,4(1H,3H)-dione]
pEC50 [1]: < 6.00 | pEC50 [2]: < 6.00

COc1c(-c2ccc3c(c2)CC=C3C(C)(C)NS(C)(=O)=O)cc(-n2ccc(=O)[nH]c2=O)cc1C(C)(C)C [IB-L0-2.41, N-(2-(6-(3-tert-butyl-5-(2,4-dioxo-3,4-dihydropyrimidin-1(2H)-yl)-2-methoxyphenyl)-1H-inden-3-yl)propan-2-yl)methanesulfonamide]
pEC50 [1]: 6.00 to 7.00 | pEC50 [2]: 6.00 to 7.00

COc1c(-c2ccc3c(C)coc3c2)cc(-n2ccc(=O)[nH]c2=O)cc1C(C)(C)C [IB-L0-2.42, 1-(3-tert-butyl-4-methoxy-5-(3-methylbenzofuran-6-yl)phenyl)-pyrimidine-2,4(1H,3H)-dione]
pEC50 [1]: 6.00 to 7.00 | pEC50 [2]: 6.00 to 7.00

COc1c(-c2ccc3c(c2)CCN(NS(C)(=O)=O)C3)cc(-n2ccc(=O)[nH]c2=O)cc1C(C)(C)C [IB-L0-2.43, N-(6-(3-tert-butyl-5-(2,4-dioxo-3,4-dihydropyrimidin-1(2H)-yl)-2-methoxyphenyl)-3,4-dihydroisoquinolin-2(1B)-yl)methanesulfonamide]
pEC50 [1]: < 6.00 | pEC50 [2]: 6.00 to 7.00

COc1c(-c2ccc3c(CNS(C)(=O)=O)noc3c2)cc(-n2ccc(=O)[nH]c2=O)cc1C(C)(C)C [IB-L0-2.45, N-((6-(3-tert-butyl-5-(2,4-dioxo-3,4-dihydropyrimidin-1(2H)-yl)-2-methoxyphenyl)benzo[d]isoxazol-3-yl)methyl)methanesulfonamide]
pEC50 [1]: < 6.00 | pEC50 [2]: 6.00 to 7.00

COc1c(-c2ccc3c(c2)/C(=N/NS(C)(=O)=O)CC3)cc(-n2ccc(=O)[nH]c2=O)cc1-c1cccs1 [IB-L0-2.51, (E)-N′-(6-(5-(2,4-dioxo-3,4-dihydropyrimidin-1(2H)-yl)-2-methoxy-3-(thiophen-2-yl)phenyl)-2,3-dihydro-1H-inden-1-ylidene)methanesulfonohydrazide]
pEC50 [1]: 7.00 to 8.00 | pEC50 [2]: > 8.00

CCC(C)(C)c1cc(-n2ccc(=O)[nH]c2=O)cc(-c2ccc3cc(NS(C)(=O)=O)ccc3c2)c1OC [IB-L0-2.52, N-(6-(5-(2,4-dioxo-3,4-dihydropyrimidin-1(2H)-yl)-2-methoxy-3-tert-pentylphenyl)naphthalen-2-yl)methanesulfonamide]
pEC50 [1]: 7.00 to 8.00 | pEC50 [2]: > 8.00

COc1c(-c2ccsc2)cc(-n2ccc(=O)[nH]c2=O)cc1-c1ccc2cc(NS(C)(=O)=O)ccc2c1 [IB-L0-2.53, N-(6-(5-(2,4-dioxo-3,4-dihydropyrimidin-1(2H)-yl)-2-methoxy-3-(thiophen-3-yl)phenyl)naphthalen-2-yl)methanesulfonamide]
pEC50 [1]: 7.00 to 8.00 | pEC50 [2]: 7.00 to 8.00

COc1c(-c2ccc3c(c2)/C(=N/NS(C)(=O)=O)CC3)cc(-n2ccc(=O)[nH]c2=O)cc1-c1ccco1 [IB-L0-2.55, (E)-N′-(6-(5-(2,4-dioxo-3,4-dihydropyrimidin-1(2H)-yl)-3-(furan-2-yl)-2-methoxyphenyl)-2,3-dihydro-1H-inden-1-ylidene)methanesulfonohydrazide]
pEC50 [1]: 7.00 to 8.00 | pEC50 [2]: > 8.00

COc1c(-c2ccc3cc(NS(C)(=O)=O)ccc3c2)cc(-n2ccc(=O)[nH]c2=O)cc1C(F)(F)F [IB-L0-2.56, N-(6-(5-(2,4-dioxo-3,4-dihydropyrimidin-1(2H)-yl)-2-methoxy-3-(trifluoromethyl)phenyl)naphthalen-2-yl)methanesulfonamide]
pEC50 [1]: 6.00 to 7.00 | pEC50 [2]: > 8.00

COc1c(I)cc(-n2ccc(=O)[nH]c2=O)cc1-c1ccc2cc(NS(C)(=O)=O)ccc2c1 [IB-L0-2.57, N-(6-(5-(2,4-dioxo-3,4-dihydropyrimidin-1(2H)-yl)-3-iodo-2-methoxyphenyl)naphthalen-2-yl)methanesulfonamide]
pEC50 [1]: 6.00 to 7.00 | pEC50 [2]: 7.00 to 8.00
